For the experiment, the target named is Pdr5 (Saccharomyces cerevisiae, UniProt P33302). The experiment can be described thus: ATPase assay, purified plasma membrane vesicles, Δpdr5 background subtracted. The format is biochemical. As to conditions: 100 mM MOPS pH 7.4, 50 mM KCl, 10 mM MgCl2, 5 mM NaN3, 35 °C.
Sequence of Pdr5 (P33302 whole entry): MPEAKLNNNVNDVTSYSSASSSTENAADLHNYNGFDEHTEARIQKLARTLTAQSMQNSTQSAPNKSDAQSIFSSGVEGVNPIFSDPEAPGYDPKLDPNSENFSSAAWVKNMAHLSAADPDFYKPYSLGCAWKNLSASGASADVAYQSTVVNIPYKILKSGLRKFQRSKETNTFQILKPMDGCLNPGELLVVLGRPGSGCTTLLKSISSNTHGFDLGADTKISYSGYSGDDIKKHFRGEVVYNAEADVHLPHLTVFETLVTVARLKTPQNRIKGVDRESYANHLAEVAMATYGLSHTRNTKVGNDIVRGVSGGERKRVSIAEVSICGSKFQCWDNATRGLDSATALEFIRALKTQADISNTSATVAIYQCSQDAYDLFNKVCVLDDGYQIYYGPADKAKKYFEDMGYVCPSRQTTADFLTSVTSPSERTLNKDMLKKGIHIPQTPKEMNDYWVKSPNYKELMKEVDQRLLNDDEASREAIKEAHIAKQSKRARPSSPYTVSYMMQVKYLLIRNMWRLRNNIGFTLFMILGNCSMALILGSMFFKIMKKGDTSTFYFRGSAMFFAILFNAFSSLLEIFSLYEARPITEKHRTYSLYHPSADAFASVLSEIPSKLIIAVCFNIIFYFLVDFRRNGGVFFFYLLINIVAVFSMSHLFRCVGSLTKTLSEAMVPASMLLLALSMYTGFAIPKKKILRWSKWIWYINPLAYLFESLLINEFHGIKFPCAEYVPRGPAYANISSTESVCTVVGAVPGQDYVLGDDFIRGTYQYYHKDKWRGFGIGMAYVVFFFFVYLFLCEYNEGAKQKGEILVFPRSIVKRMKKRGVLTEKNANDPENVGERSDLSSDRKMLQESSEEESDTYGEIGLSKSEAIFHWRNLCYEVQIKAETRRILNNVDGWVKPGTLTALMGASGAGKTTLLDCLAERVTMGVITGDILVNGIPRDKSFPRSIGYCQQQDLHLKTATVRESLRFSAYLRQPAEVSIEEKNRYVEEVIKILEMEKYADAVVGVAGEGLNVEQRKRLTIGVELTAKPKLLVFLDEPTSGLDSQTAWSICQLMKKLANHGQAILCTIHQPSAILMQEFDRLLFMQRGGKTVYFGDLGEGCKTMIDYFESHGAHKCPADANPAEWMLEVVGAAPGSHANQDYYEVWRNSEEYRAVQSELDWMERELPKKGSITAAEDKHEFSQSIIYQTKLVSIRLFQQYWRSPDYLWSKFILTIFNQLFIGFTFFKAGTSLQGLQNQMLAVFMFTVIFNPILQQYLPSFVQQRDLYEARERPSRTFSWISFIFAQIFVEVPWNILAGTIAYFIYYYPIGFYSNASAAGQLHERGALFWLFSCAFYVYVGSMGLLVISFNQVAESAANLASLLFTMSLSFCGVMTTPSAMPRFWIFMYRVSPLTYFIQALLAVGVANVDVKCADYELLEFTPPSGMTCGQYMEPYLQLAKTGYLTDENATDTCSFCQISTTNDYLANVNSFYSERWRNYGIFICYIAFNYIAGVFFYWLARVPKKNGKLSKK

As to `Nc1ncnc2c1ncn2[C@@H]1O[C@H](COP(=O)(O)OP(=O)(O)OP(=O)(O)O)[C@@H](O)[C@H]1O` [ATP], the Km result was “There was little or no difference in the observed Kms”.
